Laboratory results from patent US11020340B2, “Compositions containing natural products and use thereof for skin and hair” (Seiberg Consulting, LLC, priority 2017, dated 2021).

Assay: ROS-Glo H2O2 assay: removal or elimination of added hydrogen peroxide
Format: biochemical
Conditions: for microM H2O2: Table 2A calibration; for microM H2O2 / Hydrogen peroxide levels, Micro Molar H2O2: 30 minutes at room temperature; for Hydrogen peroxide levels, Micro Molar H2O2: Table 2B
Method: Broken-up algae powders (two independent batches) and the prototype formulations of Table 1A were evaluated for their biological activity in the removal or elimination of hydrogen peroxide by using the ROS-Glo™ H2O2 assay kit (Promega). The ROS-Glo™ H2O2 assay is a homogeneous, rapid and sensitive luminescent assay that measures the level of hydrogen peroxide directly in cell culture or in defined reactions. This assay allows identification of conditions or test compounds, such as small molecule inhibitors or inducers that alter ROS levels. An H2O2 Substrate is employed that reacts directly with H2O2 to generate a luciferin precursor. Upon addition of ROS-Glo™ Detection Reagent containing Ultra-Glo™ Recombinant Luciferase and Cysteine, the precursor is converted to luciferin by the d-Cysteine, and the produced luciferin reacts with Ultra-Glo™ Recombinant Luciferase to generate a luminescent signal that is proportional to H2O2 concentration. In the current study H2O2 was added into the reaction wells and the H2O2-degrading activity of the test agents, at various concentrations, was evaluated after 30 minutes of exposure at room temperature. Glutathione (GSH) served as a positive control and the luminescence results (RLU) of different GSH concentrations were calibrated to hydrogen peroxide concentrations (see Table 2A).
In a similar study, one batch of broken-up Porphyridium powder was evaluated for the same biological activity before and after gamma irradiation. The gamma irradiation used was considered weak, and ranged from about 5 to about 15 kGy.
A broken-up algae powder preparation was evaluated for biological activity (removal or elimination of hydrogen peroxide) using the ROS-Glo™ H2O2 assay kit (Promega), as described in Example 2. The powder was suspended in water and used “as is” (non-denatured) for the assay, or was heated to 100 C for 30 minutes to achieve a complete denaturation. Upon heating, the preparation changed its color from red/pink to yellow/green or to light yellow/colorless.

Q: With `N[C@@H](CCC(=O)N[C@@H](CS)C(=O)NCC(=O)O)C(=O)O` [GSH, Glutathione] as the compound, how does the “microM H2O2” value (GSH 0.025 %) read?
A: Its value is 151.69 µM.

Q: And the “microM H2O2” value (GSH 0.050 %)?
A: Its value is 105.32 µM.

Q: What about the “microM H2O2” value (GSH 0.100 %) of the same compound?
A: Its value is 67.84 µM.

Q: What about the “microM H2O2” value (GSH 0.200 %) of the same compound?
A: Its value is 45.76 µM.

Q: What about the “microM H2O2” value (GSH 0.400 %) of the same compound?
A: Its value is 14.26 µM.

Q: What about the “microM H2O2” value (GSH 0.800 %) of the same compound?
A: Its value is -7.13 µM.

Q: What about the “microM H2O2” value (GSH 1.000 %) of the same compound?
A: The value was -10.27 µM.

Q: And the “Hydrogen peroxide levels, Micro Molar H2O2” value (“Hydrogen peroxide levels” below) (0.025 % test agent)?
A: Its value is 139.566 Micro Molar.

Q: What about the “Hydrogen peroxide levels” value (0.050 % test agent) of the same compound?
A: The value was 112.262 Micro Molar.

Q: And the “Hydrogen peroxide levels” value (0.100 % test agent)?
A: Its value is 76.093 Micro Molar.

Q: And the “Hydrogen peroxide levels” value (0.200 % test agent)?
A: Its value is 53.453 Micro Molar.

Q: What about the “Hydrogen peroxide levels” value (0.400 % test agent) of the same compound?
A: Its value is 25.850 Micro Molar.

Q: And the “Hydrogen peroxide levels” value (0.800 % test agent)?
A: Its value is −6.940 Micro Molar.

Q: And the “Hydrogen peroxide levels” value (1.000 % test agent)?
A: The value was −8.278 Micro Molar.

Q: And the “Micro Molar H2O2” value (Table 2C, 0.0025 % Test/Ref)?
A: Its value is 58.797 Micro Molar.

Q: What about the “Micro Molar H2O2” value (Table 2C, 0.0050 % Test/Ref) of the same compound?
A: The value was 49.344 Micro Molar.

Q: What about the “Micro Molar H2O2” value (Table 2C, 0.0100 % Test/Ref) of the same compound?
A: The value was 52.736 Micro Molar.

Q: What about the “Micro Molar H2O2” value (Table 2C, 0.0250 % Test/Ref) of the same compound?
A: The value was 41.413 Micro Molar.

Q: What about the “Micro Molar H2O2” value (Table 2C, 0.0500 % Test/Ref) of the same compound?
A: The value was 28.936 Micro Molar.

Q: What about the “Micro Molar H2O2” value (Table 2C, 0.1000 % Test/Ref) of the same compound?
A: Its value is 16.548 Micro Molar.

Q: And the “Micro Molar H2O2” value (Table 2C, 0.2500 % Test/Ref)?
A: The value was 6.375 Micro Molar.

Q: And the “Micro Molar H2O2” value (Table 2C, 0.5000 % Test/Ref)?
A: Its value is −9.043 Micro Molar.

Q: And the “Micro Molar H2O2” value (Table 3, 0.025 % test agent)?
A: The value was 141.3439 Micro Molar.

Q: And the “Micro Molar H2O2” value (Table 3, 0.05 % test agent)?
A: Its value is 98.16 Micro Molar.

Q: And the “Micro Molar H2O2” value (Table 3, 0.1 % test agent)?
A: Its value is 53.43 Micro Molar.

Q: What about the “Micro Molar H2O2” value (Table 3, 0.2 % test agent) of the same compound?
A: The value was 10.87 Micro Molar.

Q: What about the “Micro Molar H2O2” value (Table 3, 0.4 % test agent) of the same compound?
A: Its value is −14.384 Micro Molar.

Q: What about the “Micro Molar H2O2” value (Table 3, 0.8 % test agent) of the same compound?
A: The value was −14.5708 Micro Molar.
